Results: PMC5314825 (Journal of Pharmacy & Bioallied Sciences, 2016)

Target: aldose reductase (AR) (Capra hircus, UniProt A0A452EAQ3)
Experiment: NADPH oxidation at […] nm with xylose as substrate
Assay type: cell-based
Conditions: read-out: % inhibition at 4.5 μg/ml

inhibition at 4.5 µg/mL: 64.6%
Compound: O=c1c(O)c(-c2ccc(O)c(O)c2)oc2cc(O)cc(O)c12 [quercetin]
